According to PubChem BioAssay AID2060884 (Molecular Pharmacology Branch, DTP, NCI, 2025):

Tested on: NCI-H929 complex spheroids, viability % test/control
Experiment: Anticancer human tumor NCI-H929 cell line growth inhibition [RAS];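 note: compound exposure lasted seven days before viability was read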;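 for viability, T/C: 100% = DMSO vehicle control viability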
Conditions: for IC50: curve of first compound; for viability, T/C: stronger effect = lower value
In short: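 Tumour cells grown as complex spheroids with HUVEC endothelial cells and mesenchymal stem cells, treated with RAS pathway inhibitor combinations. Each agent spans half-log steps from near clinical Cmax, or 10 microM where Cmax is unknown.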

[1] = second compound 0.00316 µM, first compound 0.00316 µM
[2] = second compound 0.00316 µM, first compound 0.01 µM
[3] = second compound 0.00316 µM, first compound 0.0316 µM
[4] = second compound 0.00316 µM, first compound 0.1 µM
[5] = second compound 0.00316 µM, first compound 0.316 µM
[6] = second compound 0.00316 µM, first compound 1 µM
[7] = second compound 0.01 µM, first compound 0.00316 µM
[8] = second compound 0.01 µM, first compound 0.01 µM
[9] = second compound 0.01 µM, first compound 0.0316 µM
[10] = second compound 0.01 µM, first compound 0.1 µM
[11] = second compound 0.01 µM, first compound 0.316 µM
[12] = second compound 0.01 µM, first compound 1 µM
[13] = second compound 0.0316 µM, first compound 0.00316 µM
[14] = second compound 0.0316 µM, first compound 0.01 µM
[15] = second compound 0.0316 µM, first compound 0.0316 µM
[16] = second compound 0.0316 µM, first compound 0.1 µM
[17] = second compound 0.0316 µM, first compound 0.316 µM
[18] = second compound 0.0316 µM, first compound 1 µM
[19] = second compound 0.1 µM, first compound 0.00316 µM
[20] = second compound 0.1 µM, first compound 0.01 µM
[21] = second compound 0.1 µM, first compound 0.0316 µM
[22] = second compound 0.1 µM, first compound 0.1 µM
[23] = second compound 0.1 µM, first compound 0.316 µM
[24] = second compound 0.1 µM, first compound 1 µM
[25] = second compound 0.316 µM, first compound 0.00316 µM
[26] = second compound 0.316 µM, first compound 0.01 µM
[27] = second compound 0.316 µM, first compound 0.0316 µM
[28] = second compound 0.316 µM, first compound 0.1 µM
[29] = second compound 0.316 µM, first compound 0.316 µM
[30] = second compound 0.316 µM, first compound 1 µM
[31] = second compound 1 µM, first compound 0.00316 µM
[32] = second compound 1 µM, first compound 0.01 µM
[33] = second compound 1 µM, first compound 0.0316 µM
[34] = second compound 1 µM, first compound 0.1 µM
[35] = second compound 1 µM, first compound 0.316 µM
[36] = second compound 1 µM, first compound 1 µM

C=CC(=O)Nc1cc(Nc2nccc(-c3cn(C)c4ccccc34)n2)c(OC)cc1N(C)CCN(C)C + C=CC(=O)N1CCN(c2nc(OCC3CCCN3C)nc3c(F)c(-c4nc(N)cc(C)c4C(F)(F)F)c(Cl)cc23)C(C)C1
IC50 (second compound 0.00316 µM): > 1000 nM
IC50 (second compound 0.01 µM): > 1000 nM
IC50 (second compound 0.0316 µM): > 1000 nM
IC50 (second compound 0.1 µM): > 1000 nM
IC50 (second compound 0.316 µM): > 1000 nM
IC50 (second compound 1 µM): > 1000 nM
viability, T/C [1]: 93.4%
viability, T/C [2]: 97.7%
viability, T/C [3]: 102%
viability, T/C [4]: 95.2%
viability, T/C [5]: 100%
viability, T/C [6]: 103%
viability, T/C [7]: 101%
viability, T/C [8]: 100%
viability, T/C [9]: 101%
viability, T/C [10]: 101%
viability, T/C [11]: 99.4%
viability, T/C [12]: 107%
viability, T/C [13]: 95.5%
viability, T/C [14]: 99.8%
viability, T/C [15]: 104%
viability, T/C [16]: 99.3%
viability, T/C [17]: 103%
viability, T/C [18]: 104%
viability, T/C [19]: 98.1%
viability, T/C [20]: 101%
viability, T/C [21]: 108%
viability, T/C [22]: 99.1%
viability, T/C [23]: 101%
viability, T/C [24]: 107%
viability, T/C [25]: 101%
viability, T/C [26]: 104%
viability, T/C [27]: 101%
viability, T/C [28]: 99.5%
viability, T/C [29]: 104%
viability, T/C [30]: 105%
viability, T/C [31]: 106%
viability, T/C [32]: 106%
viability, T/C [33]: 107%
viability, T/C [34]: 105%
viability, T/C [35]: 107%
viability, T/C [36]: 106%

CC(Nc1ccc2c(c1)OCCn1cc(N3C(=O)OCC3C(F)F)nc1-2)C(N)=O (stereo unspecified) + C=CC(=O)N1CCN(c2nc(OCC3CCCN3C)nc3c(F)c(-c4nc(N)cc(C)c4C(F)(F)F)c(Cl)cc23)C(C)C1
IC50 (second compound 0.00316 µM): > 10000 nM
IC50 (second compound 0.01 µM): > 10000 nM
IC50 (second compound 0.0316 µM): > 10000 nM
IC50 (second compound 0.1 µM): > 10000 nM
IC50 (second compound 0.316 µM): > 10000 nM
IC50 (second compound 1 µM): 8110 nM
viability, T/C [3]: 99%
viability, T/C [4]: 103%
viability, T/C [5]: 112%
viability, T/C [6]: 107%
viability, T/C (second compound 0.00316 µM, first compound 3.16 µM): 110%
viability, T/C (second compound 0.00316 µM, first compound 10 µM): 61.1%
viability, T/C [9]: 94.8%
viability, T/C [10]: 103%
viability, T/C [11]: 107%
viability, T/C [12]: 112%
viability, T/C (second compound 0.01 µM, first compound 3.16 µM): 102%
viability, T/C (second compound 0.01 µM, first compound 10 µM): 64.3%
viability, T/C [15]: 98%
viability, T/C [16]: 106%
viability, T/C [17]: 111%
viability, T/C [18]: 114%
viability, T/C (second compound 0.0316 µM, first compound 3.16 µM): 112%
viability, T/C (second compound 0.0316 µM, first compound 10 µM): 64.6%
viability, T/C [21]: 97.8%
viability, T/C [22]: 104%
viability, T/C [23]: 113%
viability, T/C [24]: 113%
viability, T/C (second compound 0.1 µM, first compound 3.16 µM): 113%
viability, T/C (second compound 0.1 µM, first compound 10 µM): 66.1%
viability, T/C [27]: 102%
viability, T/C [28]: 107%
viability, T/C [29]: 112%
viability, T/C [30]: 112%
viability, T/C (second compound 0.316 µM, first compound 3.16 µM): 112%
viability, T/C (second compound 0.316 µM, first compound 10 µM): 77.5%
viability, T/C [33]: 103%
viability, T/C [34]: 110%
viability, T/C [35]: 114%
viability, T/C [36]: 115%
viability, T/C (second compound 1 µM, first compound 3.16 µM): 110%
viability, T/C (second compound 1 µM, first compound 10 µM): 36.7%

O=C(c1ccc(F)c(F)c1Nc1ccc(I)cc1F)N1CC(O)([C@@H]2CCCCN2)C1 + C=CC(=O)N1CCN(c2nc(OCC3CCCN3C)nc3c(F)c(-c4nc(N)cc(C)c4C(F)(F)F)c(Cl)cc23)C(C)C1
IC50 (second compound 0.00316 µM): > 1000 nM
IC50 (second compound 0.01 µM): > 1000 nM
IC50 (second compound 0.0316 µM): > 1000 nM
IC50 (second compound 0.1 µM): > 1000 nM
IC50 (second compound 0.316 µM): > 1000 nM
IC50 (second compound 1 µM): > 1000 nM
viability, T/C [1]: 101%
viability, T/C [2]: 92.1%
viability, T/C [3]: 85.7%
viability, T/C [4]: 88.7%
viability, T/C [5]: 112%
viability, T/C [6]: 55.4%
viability, T/C [7]: 102%
viability, T/C [8]: 91.2%
viability, T/C [9]: 83.5%
viability, T/C [10]: 94.2%
viability, T/C [11]: 112%
viability, T/C [12]: 58.3%
viability, T/C [13]: 96.9%
viability, T/C [14]: 96.8%
viability, T/C [15]: 88.6%
viability, T/C [16]: 95.2%
viability, T/C [17]: 112%
viability, T/C [18]: 57.4%
viability, T/C [19]: 99.2%
viability, T/C [20]: 93.4%
viability, T/C [21]: 89.1%
viability, T/C [22]: 93.3%
viability, T/C [23]: 113%
viability, T/C [24]: 56.7%
viability, T/C [25]: 97.8%
viability, T/C [26]: 101%
viability, T/C [27]: 84.3%
viability, T/C [28]: 92.7%
viability, T/C [29]: 117%
viability, T/C [30]: 54.4%
viability, T/C [31]: 106%
viability, T/C [32]: 97.5%
viability, T/C [33]: 91.3%
viability, T/C [34]: 104%
viability, T/C [35]: 116%
viability, T/C [36]: 54%
